These compounds were tested against T1, MMP-2 (Homo sapiens, UniProt P08253) (assay: Assay for inhibitory activities on MMPs (fluorogenic peptide substrate), MMP-2). Settings: purchased MMP-2; substrate MOCAc-Pro-Leu-Gly-Leu-A2Pr(DNP)-Ala-Arg-NH2.
T1 construct: purchased Calbiochem-Novabiochem International, Inc
T1 sequence (P08253 110-660): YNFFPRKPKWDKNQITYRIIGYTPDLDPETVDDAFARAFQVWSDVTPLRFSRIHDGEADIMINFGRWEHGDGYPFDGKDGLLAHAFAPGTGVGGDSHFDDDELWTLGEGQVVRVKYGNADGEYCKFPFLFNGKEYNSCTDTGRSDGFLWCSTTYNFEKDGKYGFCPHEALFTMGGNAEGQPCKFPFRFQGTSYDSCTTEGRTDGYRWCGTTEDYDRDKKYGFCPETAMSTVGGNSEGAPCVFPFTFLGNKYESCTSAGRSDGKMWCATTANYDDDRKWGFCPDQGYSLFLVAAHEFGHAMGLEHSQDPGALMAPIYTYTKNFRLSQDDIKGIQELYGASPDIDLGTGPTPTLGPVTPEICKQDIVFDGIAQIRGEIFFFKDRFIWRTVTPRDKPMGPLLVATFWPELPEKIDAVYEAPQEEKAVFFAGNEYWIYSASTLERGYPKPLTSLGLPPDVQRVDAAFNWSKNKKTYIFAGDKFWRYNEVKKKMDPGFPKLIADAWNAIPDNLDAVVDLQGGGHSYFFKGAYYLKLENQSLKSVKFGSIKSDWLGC
Type: biochemical
Experimental: MMP-2 was purchased from Calbiochem-Novabiochem International, Inc.
(§1) The enzymatic activity on MMPs was analyzed by the method described in “C. Graham Knight, Frances Willenbrock and Gillian Murphy: A novel coumarin-labelled peptide for sensitive continuous assays of the matrix metalloproteinases: FEBS LETT., 296, (1992), 263-266”. The substrate MOCAc-Pro-Leu-Gly-Leu-A2Pr(DNP)-Ala-Arg-NH2 was purchased from Peptide Institute, Inc., Osaka, Japan. The measurement of the inhibitory activities (IC50) was carried out by the following four methods;
(§2) (A) Reaction with substrate, enzyme (MMPs) and inhibitor
(§3) (B) Reaction with substrate and inhibitor, without enzyme
(§4) (C) Reaction with substrate and enzyme (MMPs), without inhibitor
(§5) (D) Reaction with substrate only
(§6) IC50 values were calculated by using the following formula and each fluorescence values of above four methods (A to D). % inhibition={1−(A−B)/(C−D)}×100 IC50 means the concentration required to inhibit 50% of the enzyme activity.

IC50 [nM] | SMILES
1.44 | O=C(O)[C@H](Cc1ccccc1)NS(=O)(=O)c1ccc(-c2ncc(-c3ccccc3)s2)cc1 [Compound B-12]
10.9 | COc1ccc(-c2cnc(-c3ccc(S(=O)(=O)N[C@H](CC(C)C)C(=O)O)cc3)o2)cc1 [Compound A-28]
8.05 | CC(C)[C@H](NS(=O)(=O)c1ccc(-c2ncc(-c3ccc(F)cc3)s2)cc1)C(=O)O [Compound B-9]
2.56 | O=C(O)[C@H](Cc1ccccc1)NS(=O)(=O)c1ccc(-c2ncc(-c3ccc(Cl)cc3)s2)cc1 [Compound B-14]

The compounds below were run against T2, MMP-8 (Homo sapiens, UniProt P22894) (assay: Assay for inhibitory activities on MMPs (fluorogenic peptide substrate), MMP-8). Settings: catalytic domain 99Phe-262Gly; substrate MOCAc-Pro-Leu-Gly-Leu-A2Pr(DNP)-Ala-Arg-NH2.
T2 construct: catalytic domain (^99Phe˜^262Gly) was amplified with PCR; His-tag; enterokinase digestion-site; made in house; host or cells: Escherichia coli
Type: biochemical
Description: In regard to MMP-8, catalytic domain (^99Phe˜^262Gly) was amplified with PCR using commercial available Human Bone Marrow cDNA. This was cloned in Escherichia. coli expression vector pTrc99AHE inserted with His-tag sequence and enterokinase digestion-site, induced and expressed by IPTG (Isopropyl-β-D-thiogalactopyranoside) and expressed in a insoluble fraction (Thau F. Ho, M. Walid Qoronfleh, Robert C. Wahl, Trica A. Pulvino, Karen J. Vavra, Joe Falvo, Tracey M. Banks, Patricia G. Brake and Richard B. Ciccarelli: Gene expression, purification and characterization of recombinant human neutrophil collagenase. Gene 146, (1994) 297-301, Prepared by the a improved method of this material). Isolation of MMP-8 from an insoluble fraction was carried out by dissolving in modifier (6M urea) by a usual method and purification with metal chelate chromatography. And then removing modifier (6M urea) with dialysis and refolding of the enzyme spontaneously gave activated MMP-8.
as §1, §2, §3, §4, §5, §6

T2 sequence (P22894 99-262): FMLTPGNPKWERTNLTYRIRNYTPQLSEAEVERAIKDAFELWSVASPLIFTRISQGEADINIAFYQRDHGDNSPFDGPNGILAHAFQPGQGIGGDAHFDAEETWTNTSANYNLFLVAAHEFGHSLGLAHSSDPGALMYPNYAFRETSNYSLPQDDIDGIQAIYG

IC50 [nM] | SMILES
25.9 | O=C(O)[C@H](Cc1ccccc1)NS(=O)(=O)c1ccc(-c2ncc(-c3ccccc3)s2)cc1 [Compound B-12]
26.1 | COc1ccc(-c2cnc(-c3ccc(S(=O)(=O)N[C@H](CC(C)C)C(=O)O)cc3)o2)cc1 [Compound A-28]
12.5 | CC(C)[C@H](NS(=O)(=O)c1ccc(-c2ncc(-c3ccc(F)cc3)s2)cc1)C(=O)O [Compound B-9]
72.8 | O=C(O)[C@H](Cc1ccccc1)NS(=O)(=O)c1ccc(-c2ncc(-c3ccc(Cl)cc3)s2)cc1 [Compound B-14]

Each compound was assayed against T3, MMP-12 (Homo sapiens, UniProt P39900) (assay: Assay for inhibitory activities on MMPs (fluorogenic peptide substrate), MMP-12). Settings: catalytic domain 100Phe-263Gly; substrate MOCAc-Pro-Leu-Gly-Leu-A2Pr(DNP)-Ala-Arg-NH2.
T3 construct: catalytic domain(^100Phe˜^263Gly) was amplified with RT-PCR; His-tag; enterokinase digestion-site; made in house; host or cells: Escherichia coli
Type: biochemical
Experimental: (§7) In regard to MMP-12, catalytic domain(^100Phe˜^263Gly) was amplified with RT-PCR from Human Placenta Total RNA. This was cloned in Escherichia. coli expression vector pTrc99AHE inserted with His-tag sequence and enterokinase digestion-site, induced and expressed by IPTG (Isopropyl-β-D-thiogalactopyranoside) and expressed in a insoluble fraction. Isolation of MMP-12 from an insoluble fraction was carried out by dissolving in modifier (6M urea) by a usual method and purification with metal chelate chromatography (Ni Chelateing Sepharose). And then removing modifier (6M urea) with dialysis and refolding of the enzyme spontaneously gave activated MMP-12.
as §1, §2, §3, §4, §5, §6

T3 sequence (P39900 100-263): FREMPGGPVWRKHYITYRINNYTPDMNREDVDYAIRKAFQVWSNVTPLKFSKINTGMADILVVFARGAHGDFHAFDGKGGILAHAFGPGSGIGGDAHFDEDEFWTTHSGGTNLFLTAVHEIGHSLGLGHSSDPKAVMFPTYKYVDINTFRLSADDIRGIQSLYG

IC50 [nM] | SMILES
3.69 | O=C(O)[C@H](Cc1ccccc1)NS(=O)(=O)c1ccc(-c2ncc(-c3ccccc3)s2)cc1 [Compound B-12]
5.05 | COc1ccc(-c2cnc(-c3ccc(S(=O)(=O)N[C@H](CC(C)C)C(=O)O)cc3)o2)cc1 [Compound A-28]
1.33 | CC(C)[C@H](NS(=O)(=O)c1ccc(-c2ncc(-c3ccc(F)cc3)s2)cc1)C(=O)O [Compound B-9]
2.49 | O=C(O)[C@H](Cc1ccccc1)NS(=O)(=O)c1ccc(-c2ncc(-c3ccc(Cl)cc3)s2)cc1 [Compound B-14]

Each compound was assayed against T4, MMP-9 (Homo sapiens, UniProt P14780) (assay: Assay for inhibitory activities on MMPs (fluorogenic peptide substrate), MMP-9). Settings: MMP-9 from HT1080 cells, activated by TPCK-Trypsin; substrate MOCAc-Pro-Leu-Gly-Leu-A2Pr(DNP)-Ala-Arg-NH2.
T4 construct: endogenous in cells; host or cells: HT1080 human fibrosarcoma cells, TPA-stimulated; enzyme purified from conditioned medium
Type: biochemical
Description: MMP-9 was isolated and purified by procedures described in as follows: Yasunori Okada, Yukio Gonoji, Katsumi Naka, Katsuro Tomita, Isao Nakanishi, Kazushi Iwata, Kyoko Yamashita, and Taro Hayakawa: Matrix metalloproteinase 9 (92-kDa gelatinase/type IV collagenase) from HT1080 human fibrosarcoma cells. Purification and activation of the precursor and enzymic properties J. Biol. Chem., 1992, 267 21712-21719, in combination with others: 1)Yasunori Okada, Tatsuhisa Morodomi, Jan J, Enghild, ko Suzuki, Atsushi Yasui, Isao Nakanishi, Guy Salvesen and Hideaki Nagase: Matrix metalloproteinase 2 from human rheumatoid synovial fibroblasts. Purification and activation of the precursor and enzymic properties. Eur. J. Biochem. 1990, 194 721-730; 2)Robin V Ward, Rosalind M Hembry, John J Reynolds and Gillian Murphy: The purification of tissue inhibitor of metalloproteinase-2 from its 72 kDa progelatinase complex. Biochem. J. 1991 278 179-187. In detail, human fibrosarcoma ATCC HT1080 cell line was cultured to confluent in Dulbecco's Modified Medium (DMEM) containing 10% fetal-calf serum at 37° C. for 48 hours. Subsequently, the medium of confluent culture was changed to serum-free DMEM medium. To obtain MMP-9, Phorbol-12-myristate-13-acetate (TPA) must be added to this serum-free DMEM medium at a concentration of 50 ng/ml. The TPA treated medium was centrifuged at 3000 rpm for 15 min and the supernatant was concentrated to 450 ml by a Toyo-Roshi UP-20 apparatus with an ultrafiltration membrane. Then, proMMP-9 in this concentrated solution was purified by using columns of Gelatin-Sepharose and Concanavalin A-Sepharose. The pool containing proMMP-9 was dialyzed, concentrated (Toyo-Roshi UP-20) and applied to columns of Sephacryl S-200 and Green A matrix for the separation from TIMPs. The obtained proMMP-9 fraction was activated by TPCK-Trypsin (Final conc. 3 μg/501 μl React Mix.).
as §1, §2, §3, §4, §5, §6

T4 sequence (P14780 107-707 limits assumed): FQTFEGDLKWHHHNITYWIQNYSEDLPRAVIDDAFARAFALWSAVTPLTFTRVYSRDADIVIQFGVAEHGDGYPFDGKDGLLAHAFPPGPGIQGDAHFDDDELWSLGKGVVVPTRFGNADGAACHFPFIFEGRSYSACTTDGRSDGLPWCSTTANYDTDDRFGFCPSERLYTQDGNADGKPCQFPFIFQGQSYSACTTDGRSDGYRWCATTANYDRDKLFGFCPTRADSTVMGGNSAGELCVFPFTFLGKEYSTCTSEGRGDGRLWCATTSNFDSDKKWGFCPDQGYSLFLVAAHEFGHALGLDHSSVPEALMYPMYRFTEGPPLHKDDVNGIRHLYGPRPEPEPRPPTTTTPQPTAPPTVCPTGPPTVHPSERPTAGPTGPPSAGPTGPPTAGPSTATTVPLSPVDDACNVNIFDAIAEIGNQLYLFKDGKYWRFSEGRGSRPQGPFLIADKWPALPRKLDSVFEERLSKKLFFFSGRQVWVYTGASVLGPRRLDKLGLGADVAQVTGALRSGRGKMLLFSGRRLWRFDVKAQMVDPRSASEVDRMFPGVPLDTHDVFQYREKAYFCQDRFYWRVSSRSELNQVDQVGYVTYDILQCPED

IC50 [nM] | SMILES
66.9 | O=C(O)[C@H](Cc1ccccc1)NS(=O)(=O)c1ccc(-c2ncc(-c3ccccc3)s2)cc1 [Compound B-12]
483 | COc1ccc(-c2cnc(-c3ccc(S(=O)(=O)N[C@H](CC(C)C)C(=O)O)cc3)o2)cc1 [Compound A-28]
55 | CC(C)[C@H](NS(=O)(=O)c1ccc(-c2ncc(-c3ccc(F)cc3)s2)cc1)C(=O)O [Compound B-9]
19.5 | O=C(O)[C@H](Cc1ccccc1)NS(=O)(=O)c1ccc(-c2ncc(-c3ccc(Cl)cc3)s2)cc1 [Compound B-14]

The compounds below were run against T5, MMP-13 (Homo sapiens, UniProt P45452) (assay: Assay for inhibitory activities on MMPs (fluorogenic peptide substrate), MMP-13). Settings: catalytic domain 104Tyr-267Gly; substrate MOCAc-Pro-Leu-Gly-Leu-A2Pr(DNP)-Ala-Arg-NH2.
T5 construct: catalytic domain (^104Tyr˜^267Gly) was amplified with RT-PCR; His-tag; enterokinase digestion-site; made in house; host or cells: Escherichia coli
Type: biochemical
Experimental: as §7, with “MMP-13, mRNA was prepared from carcinoma cell SW1353 derived from human cartilage stimulate by IL-1, TNF and” for “MMP-12,”, “domain (^104Tyr˜^267Gly)” for “domain(^100Phe˜^263Gly)”, “RT-PCR.” for “RT-PCR from Human Placenta Total RNA.”, “MMP-13” for “MMP-12”, “dialyze” for “dialysis”, “MMP-13.” for “MMP-12.”
as §1, §2, §3, §4, §5, §6

IC50 [nM] | SMILES
9.3 | O=C(O)[C@H](Cc1ccccc1)NS(=O)(=O)c1ccc(-c2ncc(-c3ccccc3)s2)cc1 [Compound B-12]
44.8 | COc1ccc(-c2cnc(-c3ccc(S(=O)(=O)N[C@H](CC(C)C)C(=O)O)cc3)o2)cc1 [Compound A-28]
13.1 | CC(C)[C@H](NS(=O)(=O)c1ccc(-c2ncc(-c3ccc(F)cc3)s2)cc1)C(=O)O [Compound B-9]
11 | O=C(O)[C@H](Cc1ccccc1)NS(=O)(=O)c1ccc(-c2ncc(-c3ccc(Cl)cc3)s2)cc1 [Compound B-14]

Reference: patent US6949566B2, “Thiazole and oxazole derivatives” (Shionogi & Co. Ltd., priority 2000, dated 2005)
